Measured values as given in patent publication US20250145566A1, “PHENETHYLAMINE DERIVATIVES, COMPOSITIONS, AND METHODS OF USE” (Cybin IRL Limited, priority 2022, published 2025).
Entries after “also recorded” stand apart in the source; their conditions may differ.

Key:
[1] = Rat liver microsomes (RLM) in vitro metabolism; type: in vitro ADME; conditions: Sprague-Dawley, pH 7.4; rat liver microsomes, test compound 1 μM; * = apparent NADPH independent reaction; read-out: RLM t1/2
Description: Rat Liver Microsomes (RLM). Male Sprague-Dawley rat liver microsomes were purchased from XenoTech. The reaction mixture, minus NADPH, was prepared as described in Table 10. The test compound was added into the reaction mixture at a final concentration of 1 μM. The control compound, testosterone, was run simultaneously with the test compound in a separate reaction. The reaction mixture (without cofactor) was equilibrated in a shaking water bath at 37° C. for 5 minutes. The reaction was initiated by the addition of the cofactor, and the mixture was incubated in a shaking water bath at 37° C. Aliquots (150 μL) were withdrawn at 0, 5, 10, 20, 30, 60, and for some assays at 120 minutes. Test compound and testosterone samples were immediately combined with 150 μL of ice-cold acetonitrile (ACN) containing 0.1% formic acid and internal standard to terminate the reaction. The samples were then mixed and centrifuged to precipitate proteins. All samples were assayed by LC-MS/MS using electrospray ionization. The peak area response ratio (PARR) of analyte to internal standard at each time point was compared to the PARR at time 0 to determine the percent remaining at each time point. Half-lives were calculated using GraphPad software, fitting to a single-phase exponential decay equation.
In a different series of reactions using RLM, a 10 mM stock solution of the test compound was prepared in DMSO. From this stock solution, an intermediate stock solution of 1 mM was prepared by diluting the compound in DMSO and from this intermediate stock solution, a working solution of 0.30 mM was prepared by diluting the compound in ACN:Water (50:50) as a cocktail of two compounds (i.e., 30 μL the non-deuterated and the deuterated compound in 40 μL diluent in 100 μL total volume). Following this, a master mix of rat liver microsomes (final concentration 0.5 mg/ml, Xenotech Cat #R1000; Lot #1610290) and 0.1 M potassium phosphate buffer was prepared and pre-incubated for 5 min at 37° C. The test compound mixture was then added to achieve a final test article concentration of 1 μM (for each analog if co-dosed; 0.2% DMSO); verapamil was used as a positive control. Subsequently, 10 mM NADPH prepared in 0.1 M potassium phosphate buffer was added (final concentration 1 mM) to initiate the reaction and samples were incubated at 37° C. for the desired time points (0, 5, 15, 30, 45, 60 min). At each time point, 40 μL of the samples were withdrawn and reactions were stopped using 200 μL chilled ACN containing 0.1% formic acid and internal standard carbamazepine (10 ng/mL). The samples were centrifuged, and the supernatant was analyzed by LC-MS/MS. The percent compound remaining at each time point was calculated with respect to that of the 0 min sample. The data were then analyzed to calculate half-life. Blank samples were prepared using DMSO (without the test compound).

5-HT2B (h) = molecular target: T1, 5-HT2B (h) (Homo sapiens, UniProt P41595); assay: 5-HT2B (h) agonist effect, IP1 HTRF functional assay; type: cell-based; conditions: for agonist efficacy at 5-HT2B, in words: EMAX relative to 5-HT
T1 construct: expressed in transfected cells; host or cells: CHO cells
T1 sequence (P41595 whole entry): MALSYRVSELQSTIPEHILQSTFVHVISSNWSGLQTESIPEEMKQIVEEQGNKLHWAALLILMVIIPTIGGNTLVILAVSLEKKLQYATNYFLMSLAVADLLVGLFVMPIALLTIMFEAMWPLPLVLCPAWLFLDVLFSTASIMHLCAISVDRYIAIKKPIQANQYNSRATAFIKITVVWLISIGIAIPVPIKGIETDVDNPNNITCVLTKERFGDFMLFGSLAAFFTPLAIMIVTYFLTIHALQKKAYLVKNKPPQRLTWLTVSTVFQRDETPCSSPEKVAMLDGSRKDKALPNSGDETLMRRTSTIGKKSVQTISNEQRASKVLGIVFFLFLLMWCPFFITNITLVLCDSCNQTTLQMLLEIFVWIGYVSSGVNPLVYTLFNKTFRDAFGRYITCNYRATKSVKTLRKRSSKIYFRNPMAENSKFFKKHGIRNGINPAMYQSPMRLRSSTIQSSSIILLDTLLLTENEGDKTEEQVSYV

Row | Compound | half-life at 1 µM [1] [min] | EC50 (5-HT2B (h)) [µM] | Emax at 10 µM (5-HT2B (h); at 10 μM, relative to 5-HT, read-out: Function 5-HT2B EMAX) [%] | Function 5-HT2B (Gq-IP1, efficacy relative to 5-HT), agonist type (5-HT2B (h); tested at 1, 3, 10, 100 μM) | agonist efficacy at 5-HT2B, in words (5-HT2B (h); tested at 1, 3, 10, 100 μM)
1 | NCCc1ccc2c(c1)OCS2 [II-14, 2-(benzo[d][1,3]oxathiol-6-yl)ethan-1-amine] | < 5 | < 0.75 | 100 | Full agonist - | nearly full or full agonist; also recorded: full agonists
2 | CC(N)Cc1ccc2c(c1)OCS2 (stereo not shown) [II-16, 1-(benzo[d][1,3]oxathiol-6-yl)propan-2-amine] | 11.7 |  |  |  | nearly full or full agonist; also recorded: full agonists
